Assay results reported in US9127040B2, “Regulation of sodium channels by PLUNC proteins” (The University of North Carolina at Chapel Hill, priority 2011, dated 2015).
“Also recorded” adds a separate entry of the source. Ends that are not written are not given here.

T1: αβγENaC (Rattus norvegicus, UniProt P37089+P37090+P37091)
T1 construct: expressed in transfected cells; host or cells: Xenopus laevis oocytes (cRNA injection)
T1 sequence (P37089 1-698): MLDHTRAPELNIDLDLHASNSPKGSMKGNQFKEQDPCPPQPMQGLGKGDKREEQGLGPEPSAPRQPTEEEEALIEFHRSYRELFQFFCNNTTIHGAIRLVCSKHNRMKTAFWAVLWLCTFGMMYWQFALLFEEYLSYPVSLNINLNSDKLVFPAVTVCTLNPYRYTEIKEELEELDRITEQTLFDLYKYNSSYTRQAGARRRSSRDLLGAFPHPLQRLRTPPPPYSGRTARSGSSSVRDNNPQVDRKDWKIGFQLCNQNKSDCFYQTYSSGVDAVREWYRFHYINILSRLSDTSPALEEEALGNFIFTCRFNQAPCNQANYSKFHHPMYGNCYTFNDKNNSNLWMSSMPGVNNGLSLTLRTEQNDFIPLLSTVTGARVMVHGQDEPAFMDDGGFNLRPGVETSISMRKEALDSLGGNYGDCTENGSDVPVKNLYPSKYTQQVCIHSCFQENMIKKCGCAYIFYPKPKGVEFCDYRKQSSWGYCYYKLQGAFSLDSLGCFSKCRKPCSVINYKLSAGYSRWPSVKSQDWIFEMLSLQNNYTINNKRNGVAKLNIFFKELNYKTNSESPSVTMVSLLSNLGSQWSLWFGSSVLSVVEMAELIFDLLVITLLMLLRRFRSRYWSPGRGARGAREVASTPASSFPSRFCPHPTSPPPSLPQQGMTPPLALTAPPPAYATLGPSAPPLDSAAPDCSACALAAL
T1 sequence (P37090 1-638): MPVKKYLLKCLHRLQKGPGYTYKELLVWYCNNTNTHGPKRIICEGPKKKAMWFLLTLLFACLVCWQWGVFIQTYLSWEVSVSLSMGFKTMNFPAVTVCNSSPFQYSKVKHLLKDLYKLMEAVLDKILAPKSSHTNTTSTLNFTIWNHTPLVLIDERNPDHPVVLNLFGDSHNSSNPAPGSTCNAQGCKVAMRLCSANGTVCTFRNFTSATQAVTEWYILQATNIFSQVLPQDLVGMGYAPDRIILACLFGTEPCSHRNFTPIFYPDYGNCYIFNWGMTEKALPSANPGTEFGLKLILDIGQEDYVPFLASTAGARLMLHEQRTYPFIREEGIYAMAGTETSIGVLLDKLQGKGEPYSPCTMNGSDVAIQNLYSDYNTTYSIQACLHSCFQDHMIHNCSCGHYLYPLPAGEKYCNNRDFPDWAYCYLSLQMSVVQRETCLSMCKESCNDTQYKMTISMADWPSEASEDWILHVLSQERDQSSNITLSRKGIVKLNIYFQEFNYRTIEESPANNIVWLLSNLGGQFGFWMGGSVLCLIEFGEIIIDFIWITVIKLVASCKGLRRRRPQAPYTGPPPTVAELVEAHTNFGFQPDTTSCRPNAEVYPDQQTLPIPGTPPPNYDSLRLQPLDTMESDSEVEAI
T1 sequence (P37091 1-650): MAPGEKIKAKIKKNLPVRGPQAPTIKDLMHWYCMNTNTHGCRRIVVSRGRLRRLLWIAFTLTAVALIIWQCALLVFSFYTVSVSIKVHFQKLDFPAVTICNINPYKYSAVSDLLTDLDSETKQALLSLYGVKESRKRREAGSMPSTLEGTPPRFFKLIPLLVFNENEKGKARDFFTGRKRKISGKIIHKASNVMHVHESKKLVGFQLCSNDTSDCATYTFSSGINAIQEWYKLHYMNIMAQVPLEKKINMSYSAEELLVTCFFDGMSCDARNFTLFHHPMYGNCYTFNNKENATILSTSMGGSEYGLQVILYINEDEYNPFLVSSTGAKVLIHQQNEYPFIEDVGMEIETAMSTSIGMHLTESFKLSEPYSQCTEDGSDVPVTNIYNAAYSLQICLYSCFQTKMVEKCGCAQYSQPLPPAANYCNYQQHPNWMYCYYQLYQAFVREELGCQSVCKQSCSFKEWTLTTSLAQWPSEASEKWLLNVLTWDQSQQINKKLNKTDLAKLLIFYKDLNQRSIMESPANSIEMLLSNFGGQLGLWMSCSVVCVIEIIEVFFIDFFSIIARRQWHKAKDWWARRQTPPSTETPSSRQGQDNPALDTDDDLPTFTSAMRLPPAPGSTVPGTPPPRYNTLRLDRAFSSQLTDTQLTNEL

B1: SPLUNC1: human SPLUNC1 (SEQ ID NO:1), 256 amino acid secreted PLUNC family protein; rSPLUNC1 is the purified V5/6His-tagged recombinant form (protein, listed as Homo sapiens)
chain: MFQTGGLIVFYGLLAQTMAQFGGLPVPLDQTLPLNVNPALPLSPTGLAGSLTNALSNGLLSGGLLGILENLPLLDILKPGGGTSGGLLGGLLGKVTSVIPGLNNIIDIKVTDPQLLELGLVQSPDGHRLYVTIPLGIKLQVNTPLVGASLLRLAVKLDITAEILAVRDKQERIHLVLGDCTHSPGSLQISLLDGLGPLPIQGLLDSLTGILNKVLPELVQGNVCPLVNEVLRGLDITLVHDIVNMLIHGLQFVIKV
modifications: V5/6His tag in recombinant form
notes: rSPLUNC1 is the purified V5/6His-tagged recombinant form

Key:
αβγENaC [1] = biological target: T1, αβγENaC; experiment: Amiloride-sensitive whole cell current, two electrode voltage clamp, Xenopus laevis oocytes expressing αβγENaC; type: cell-based; conditions: 100 μM in bath for 2 h; pH 6 vs 7.4
αβγENaC [2] = biological target: T1, αβγENaC; experiment: Amiloride-sensitive whole cell current, two electrode voltage clamp, Xenopus laevis oocytes expressing αβγENaC; type: cell-based
Description: Xenopus laevis oocytes were harvested and injected as described (Donaldson, et al., J. Biol. Chem. 277:8338 (2002)). Defolliculated healthy stage V-VI oocytes were injected with 0.3 ng of CRNA of each ENaC subunit. Injected oocytes were kept in modified Barth's saline (in mM: 88 NaCl, 1 KCl, 2.4 NaHCO3, 0.3 Ca(NO3)2, 0.41 CaCl2, 0.82 MgSO4, and 15 HEPES, adjusted to pH 7.35 with Tris). Oocytes were studied 24 hr after injection using the two electrode voltage clamp technique as previously described (Donaldson, et al., J. Biol. Chem. 277:8338 (2002)). Oocytes were clamped at a holding potential of −60 mV. The change in amiloride-sensitive whole cell current as an indicator of ENaC activity was determined by subtracting the corresponding current value measured in the presence of 10 μM amiloride from that measured before the application of amiloride. Where appropriate, oocytes were incubated with G22-A39 or ABC for 1 h prior to recording. In some experiments β-ENaC^S518C was used which forms ENaCs that are locked into an open probability near 1.0 by exposure to the sulthydral reactive reagent [2-(Trimethyl-ammonium)ethyl]methanethiosulphonate bromide (MTSET). MTSET was added at a concentration of 1 mM to the oocyte bath as previously described (Snyder, J. Clin. Invest. 105: 45 (2000)).

trypsin = experiment: Cell-free fluorogenic assay, trypsin cleavage of BGAR-MCA; type: biochemical; conditions: 50 ng/ml rSPLUNC1 or 2 U/ml aprotinin; 1.0 or 0.3 U/ml trypsin
Description: For cell-free assays, reactions were carried out in 50 μl Ringer in a 96 well plate format with 100 μM BGAR-MCA. To measure endogenous protease activity in human bronchial epithelial cultures, 30 μl Ringer with 100 μM BGAR-MCA were placed directly onto the mucosal surfaces of human bronchial epithelial cultures grown on 12 mm T-clear inserts and the cultures were assayed in 12 well plates.

Description for CF HBECs: To label airway surface liquid, Ringer containing Texas Red-dextran (2 mg/ml; Invitrogen) was added to human bronchial epithelial culture mucosal surfaces. Perfluorocarbon was added mucosally to prevent evaporation of the airway surface liquid and the culture placed in a chamber containing 100 μl Ringer on the stage of a Leica SP5 confocal microscope with a 63× glycerol immersion objective. 5 points per culture were scanned and an average airway surface liquid height determined. For confocal microscopy human bronchial epithelial cultures were bathed serosally in a modified Ringer solution containing (mM): 116 NaCl, 10 NaHCO3, 5.1 KCl, 1.2 CaCl2, 1.2 MgCl2, 20 TES, 10 glucose, pH 7.4). At all other times, human bronchial epithelial cultures were maintained in a modified BEGM growth medium which contained 24 mM NaHCO3 gassed with 5% CO2.
To label the ASL, PBS containing 10 kDa Rhodamine dextran (0.2-2 mg/mL; Invitrogen, Carlsbad, Calif., USA) was added to HBEC mucosal surfaces as previously described (Tarran et al., Mol. Cell 8:149 (2001)). When added, peptides with or without 100 nM neutrophil elastase, 1 U/mL aprotinin, activated neutrophil supernatant (ANS) (Haynes et al., Am. J. Physiol. Heart Circ. Physiol. 294:H379 (2008)) or 10 μM sivelestat (Sigma-Aldrich, St Louis, Mo., USA) were added to the mucosal surface along with the Rhodamine dextran. Bumetanide (100 μM) was added to the serosal solution.

Molecule | inhibition of amiloride-sensitive ENaC current at pH 6 (αβγENaC [1]) | ASL absorption (CF HBECs; 10 μM apical, over 24 h) | CF ASL absorption, paired cultures (CF HBECs; 100 μM SPLUNC1 or S18) | IC50 (CF HBECs; 8 h) | CF ASL hyperabsorption in the presence of activated neutrophil supernatant (CF HBECs; 8 h ASL height, ANS) | CF ASL hyperabsorption in the presence of neutrophil elastase (CF HBECs; 8 h ASL height, neutrophil elastase) | heat stability: inhibition of CF ASL absorption after heating (CF HBECs; peptide heated to 67° C. for 30 min, also with neutrophil elastase) | inhibition of ENaC current by peptide in bath (αβγENaC [2]; 10 μM in oocyte bath for 1 h) | effect of N-terminal biotinylation on ability to inhibit ENaC (αβγENaC [2]; n=6) | CF ASL volume homeostasis in SPLUNC1 knockdown CF HBECs (CF HBECs; recombinant SPLUNC1 together with POPSO-Ringer) | activation of ENaC currents by prostasin (CAP1) and CAP2 (αβγENaC [2]; SPLUNC1 co-expressed) | trypsin stimulation of ENaC activity (αβγENaC [2]; SPLUNC1 co-expressed) | inhibition of ENaC by C-terminal truncation mutants (αβγENaC [2]; co-expressed in oocytes, all p<0.0001 where significant) | inhibition of trypsin cleavage of fluorogenic substrate BGAR-MCA (trypsin)
GGLPVPLDQTLPLNVNPA [S18] | still inhibits ENaC | significantly blocked ASL absorption | inhibited CF ASL absorption | 600 nM | prevented CF ASL hyperabsorption | prevented CF ASL hyperabsorption | no effect on the ability of S18 to inhibit CF ASL absorption | inhibited ENaC to the same degree as the full length protein; also recorded: inhibits both basal and trypsin-stimulated ENaC current | no effect |  |  |  |  | 
B1 | abolished at pH 6 |  |  |  |  |  |  |  |  | required to restore CF ASL volume homeostasis | significantly reduced | attenuated | Significant inhibition | ~10%
